This note sets out measurements from the NIST ThermoML archive (doi:10.1021/je025655p).

Numbers after ± are expanded uncertainties.

The term viscosity denotes the resistance of a fluid to flow. What is called speed of sound is how fast a sound wave travels through the sample. What is called mass density is mass per unit of volume.

The conditions of the data set: 101.33 kPa, Liquid; for viscosity: Capillary tube (Ostwald / Ubbelohde) method; for speed of sound: Sing-around technique in a fixed-path interferometer; for mass density: Vibrating tube method.

As for `OCC(F)(F)F` [2,2,2-trifluoroethanol], the viscosity is listed as 2.693 ± 0.023 mPa·s (283.15 K), 1.755 ± 0.017 mPa·s (298.15 K) and 1.208 ± 0.012 mPa·s (313.15 K). Further, the speed of sound is 872.3 ± 1.2 m/s (283.15 K), 826.7 ± 1.1 m/s (298.15 K) and 791.7 ± 1.1 m/s (313.15 K). Besides, the mass density runs as follows: (283.15 K) 1407.89 ± 0.21 kg/m3; (298.15 K) 1382.44 ± 0.2 kg/m3; (313.15 K) 1356.91 ± 0.19 kg/m3.

In the case of `C1CCOCC1` [tetrahydropyran], under “283.15 K”, the viscosity worked out at 1.005 ± 0.0098 mPa·s, the speed of sound came to 1335.8 ± 1.6 m/s and the mass density was 894.08 ± 0.46 kg/m3. Further, under “298.15 K”, the viscosity was determined as 0.8005 ± 0.0081 mPa·s, the speed of sound is listed as 1255 ± 1.6 m/s and the mass density worked out at 879.18 ± 0.45 kg/m3. In addition, for the setting “313.15 K”, the viscosity is given as 0.6494 ± 0.0067 mPa·s, the speed of sound amounted to 1199.8 ± 1.6 m/s and the mass density was found to be 864.37 ± 0.45 kg/m3.
